Laboratory results: US20210196635A1, “DRUG-CONTAINING PARTICLE” (TOWA PHARMACEUTICAL CO., LTD., priority 2018, published 2021)

Experiment: Average particle diameter (D50) of powder
Type: physicochemical
Conditions: powder as used for coating
Description: The term “an average particle diameter” used herein refers to a particle diameter of 50% cumulative percentage (D50) on volume-based measurement of powder particle, which can be measured on the mass with a commercially available laser diffraction type particle size distribution measuring device and sonic wave vibration type sieving analyzer.

- average particle diameter: 3.38 μm
Compound: C[C@H]1COc2c(N3CCN(C)CC3)c(F)cc3c(=O)c(C(=O)O)cn1c23.C[C@H]1COc2c(N3CCN(C)CC3)c(F)cc3c(=O)c(C(=O)O)cn1c23.O [Compound A, levofloxacin 0.5 hydrate]
